Reference: patent US20200171162A1, “E-POLY-L-LYSINE DERIVATIVES HAVING FUNCTIONAL GROUP FOR CLICK CHEMISTRY, METHOD FOR PRODUCING THE SAME, AND USE THEREOF” (Fukui Prefectural University, priority 2017, published 2020)
One block for each compound: values may come before it.

How the values were obtained:
HeLa cells = assay: Biomembrane permeability test using HeLa cells (fluorescence intensity of cell extract); type: cell-based; conditions: statement for the unmodified dye
Protocol: The culture of HeLa cells was performed in a Dulbecco's modified Eagle's medium (DMEM) containing 10% fetal bovine serum (FBS) in an atmosphere of 5% carbon dioxide at 37° C. Under such culture conditions, the cells were cultured in 12-well plates until grown to 70 to 80% confluency. The cells were washed twice with DMEM without FBS (DMEM w/o FBS). […] Incubation was performed at 4° C. for 30 minutes. The cells were washed successively with phosphate buffered saline (PBS) twice, with PBS alone or PBS containing heparin (100 μg/mL), and with PBS twice. To the cells, 300 μL of 100 mM Tris-HCl buffer solution (pH 8.0) containing 1% Triton X-100 was added for extraction of the compound taken up by the cells. After removing the insoluble fraction by centrifugation, fluorescence intensity was measured.
The culture of HeLa cells was performed in a Dulbecco's modified Eagle's medium (DMEM) containing 10% fetal bovine serum (FBS) in an atmosphere of 5% carbon dioxide at 370° C. Under such culture conditions, the cells were cultured in 12-well plates until grown to 70 to 80% confluency. The cells were washed twice with DMEM without FBS (DMEM w/o FBS). […] Incubation was performed at 4° C. for 30 minutes. […] After removing the insoluble fraction by centrifugation, fluorescence intensity was measured.

physchem = assay: physchem
Protocol: A commercial DBCO-PEG4-5/6-FAM represented by formula (12) (0.5 μmol) and a 9- to 18-mer ε-PL-PEG-azide represented by the general formula (10) (wherein n is an integer of 9 to 18) (1.0 μmol) were dissolved in 80% dimethylsulfoxide (hereinafter referred to as DMSO). The mixture was subjected to a click chemistry reaction while stirred at 30° C. for 24 hours. The reaction mixture was analyzed by ESI-TOF-MS/HPLC as described in Example 1.

[1] = system: Dox-resistant K562 cells (K562/ADR); assay: Cytotoxicity (anticancer activity), MTT assay; type: cell-based; conditions: Homo sapiens, 48 hours
Protocol: (§1) The culture of K562 cells and K562/ADR cells was performed in an RPMI1640 medium containing 10% fetal bovine serum (FBS) in an atmosphere of 5% carbon dioxide at 37° C. The cells were suspended at 1×10^5 cells/mL in the medium, and 100 μL (1×10^4 cells) of the cell suspension was seeded on each well of 96-well plates and cultured for 24 hours. […] MTT assay was performed to determine cytotoxicity based on viable cell count.

[2] = system: human chronic myelogenous leukemia K562 cells; assay: Cytotoxicity (anticancer activity), MTT assay; type: cell-based; conditions: 48 hours
Protocol: as §1

biomembrane permeability (HeLa cells): no biomembrane permeability
water solubility (physchem): poorly water-soluble
SMILES: O=C(CCOCCOCCOCCOCCNC(=O)c1ccc(-c2c3ccc(=O)cc-3oc3cc(O)ccc23)c(C(=O)O)c1)NCCC(=O)N1Cc2ccccc2C#Cc2ccccc21 [DBCO-PEG4-5/6-FAM]

solubility (physchem; water): < 1080 µM
SMILES: C[C@@H]1[C@H](O)[C@@H](C)/C=C/C=C/C=C/C=C/C=C/C=C/C=C/[C@H](O[C@@H]2O[C@H](C)[C@@H](O)[C@H](N)[C@@H]2O)C[C@@H]2O[C@](O)(C[C@@H](O)C[C@@H](O)[C@H](O)CC[C@@H](O)C[C@@H](O)CC(=O)O[C@H]1C)C[C@H](O)[C@H]2C(=O)O [AmpB, amphotericin B]

SMILES: COc1cccc2c1C(=O)c1c(O)c3c(c(O)c1C2=O)C[C@@](O)(C(=O)CO)C[C@@H]3O[C@H]1C[C@H](N)[C@H](O)[C@H](C)O1 [Dox, doxorubicin]
IC50 [1]: 1.04 µM
IC50 [2]: 0.239 ± 0.072 µM
